Test results taken from article PMC3269340, “Pharmacokinetics of memantine in rats and mice” (PLoS Currents, 2012).
Read-outs that look alike come from different tables or passages of the source.

Experiment: Pharmacokinetics in rats after single iv, po or sc dose (plasma and brain)
Assay type: in vivo, Sprague-Dawley rats
Details: for half-life / AUC(0-inf) / Cmax: plasma
Protocol: Sprague Dawley (SD) rats (138 adult males), and C57Bl/6 mice (140 adult males), were obtained (Hilltop Laboratories, Scottsdale, PA); 123 per species were used in the study and the remainder provided blank matrix. Animals were individually identified by tail markings and were acclimated to the study environment for 16-21 days prior to dose administration. Animals were individually housed in suspended wire caging, and were kept on a 12h/12h light/dark cycle except when interrupted for study procedures. Average room temperature was regulated in the range 18 to 29°C, average relative humidity of 30-70%, and an average daily airflow >10 fresh air changes/h. Animals were fed LabDiet^Ò Certified Rodent Diet 5002 Meal food ad libitum, except during fasting prior to dose administration, and had access to water ad libitum.
[…] […] The concentration of memantine for the same dose level administered to mice was 0.2 mg eq./mL, and the dose volume was 5 mL/kg. The concentration of memantine in the 10mg eq./kg po and sc solutions was 5 mg eq./mL and the dose volume was 2 mL/kg for both rats and mice.
Details of the dose administration, body weights, clinical observations, plasma and brain sample collection and preparation are not shown in this report but are available upon request. Blood (for preparation of plasma) and brain samples were collected at 0.08, 0.25, 0.5, 1, 2, 4, 8, and 24h post-dose.
Since all time points were terminal, mean memantine concentrations per time point were used to calculate the composite PK parameters by non-compartmental analysis using WinNonlin program, version 5.2 (Pharsight Corp., Mountain View, California). A model was selected based on the vascular (iv bolus) or extravascular (po or sc) routes of administration. For the iv route, plasma concentration at time zero was back extrapolated from the first two observed post dose plasma concentrations. For the po and sc routes, concentration at time zero was assumed to be zero. Plasma and tissue concentrations below the limit of quantitation were treated as absent samples for the purpose of calculating the mean plasma concentration values or for calculating PK parameters.
The area under the plasma concentration versus time curve (AUC) was calculated using the linear trapezoidal method (linear interpolation). When appropriate, the terminal elimination phase of the PK profile was estimated based on the best fit (r^2) using at least the last three observed concentrations. PK parameters describing the systemic exposure of memantine in plasma and brain were estimated from observed (rather than predicted) plasma/brain concentrations, the dosing regimen, the AUC, and the terminal elimination phase rate constant (kel) for each group. The portion of the AUC from the last measurable concentration to infinity was estimated from the equation Ct/kel, where Ct represents the last measurable concentration. The extrapolated portion of the AUC was used for the determination of AUC0-∞. The percent bioavailability (%F) was calculated by dividing the dose normalized extravascular plasma AUC0-∞ by the dose normalized iv plasma AUC0-∞ times 100. The bioavailability calculations assumed concentrations were in the linear range.
Concentrations of memantine in rat and mouse plasma and brain were determined using an LC-MS/MS assay developed at ABC Laboratories.

[1] = rat brain, po dose increase from 1.22 to 10 mg/kg
[2] = rat plasma, po dose increase from 1.22 to 10 mg/kg

For `CC12CC3CC(C)(C1)CC(N)(C3)C2` [memantine], the half-life (male, Sprague-Dawley, rat, iv, 1 mg/kg, rat, printed under 1 mg/kg (iv), cross-species summary, read-out: t 1/2 (converted)) was 4 h, the AUC(0-inf) (male, Sprague-Dawley, rat, iv, 1.22 mg/kg, rat plasma, IV 1.22 mg eq./kg, read-out: AUC(0-∞)) was 1.64 µM·h and the half-life (male, Sprague-Dawley, rat, iv, 1.22 mg/kg, rat plasma, IV 1.22 mg eq./kg, read-out: Half-life (t½) (converted)) was 1.9 h. For the same molecule, the AUC(0-inf) (male, Sprague-Dawley, rat, po, 1 mg/kg, rat, dose 1 mg/kg, single dose in solution (oral values of Table 1), read-out: AUC inf) was 0.6 µM·h, the Cmax (male, Sprague-Dawley, rat, po, 1 mg/kg, rat, dose 1 mg/kg, single dose in solution, read-out: C max) was 100 nM and the AUC(0-inf) (male, Sprague-Dawley, rat, po, 1.22 mg/kg, rat plasma, PO 1.22 mg eq./kg, read-out: AUC(0-∞)) was 0.594 µM·h. The half-life (male, Sprague-Dawley, rat, po, 1.22 mg/kg, rat plasma, PO 1.22 mg eq./kg, read-out: Half-life (t½) (converted)) was 2.23 h, the Cmax (male, Sprague-Dawley, rat, po, 1.22 mg/kg, rat plasma, PO 1.22 mg eq./kg, read-out: Observed Cmax) was 109 nM and the AUC(0-inf) (male, Sprague-Dawley, rat, po, 10 mg/kg, rat plasma, PO 10.0 mg eq./kg, read-out: AUC(0-∞)) was 11.4 µM·h. The half-life (male, Sprague-Dawley, rat, po, 10 mg/kg, rat plasma, PO 10.0 mg eq./kg, read-out: Half-life (t½) (converted)) was 3.92 h, the Cmax (male, Sprague-Dawley, rat, po, 10 mg/kg, rat plasma, PO 10.0 mg eq./kg, read-out: Observed Cmax) was 3700 nM and the AUC(0-inf) (male, Sprague-Dawley, rat, po, 10 mg/kg, rat, dose 10 mg/kg, single dose in solution (oral values of Table 1), read-out: AUC inf) was 11.4 µM·h. It also gave a Cmax (male, Sprague-Dawley, rat, po, 10 mg/kg, rat, dose 10 mg/kg, single dose in solution, read-out: C max) of 3700 nM, an AUC(0-inf) (male, Sprague-Dawley, rat, sc, 1 mg/kg, rat plasma, SC 1.0 mg eq./kg, read-out: AUC(0-∞)) of 1.69 µM·h and a half-life (male, Sprague-Dawley, rat, sc, 1 mg/kg, rat plasma, SC 1.0 mg eq./kg, read-out: Half-life (t½) (converted)) of 1.81 h. It also gave a Cmax (male, Sprague-Dawley, rat, sc, 1 mg/kg, rat plasma, SC 1.0 mg eq./kg, read-out: Observed Cmax) of 985 nM, an AUC(0-inf) (male, Sprague-Dawley, rat, sc, 10 mg/kg, rat plasma, SC 10.0 mg eq./kg, read-out: AUC(0-∞)) of 25.8 µM·h and a half-life (male, Sprague-Dawley, rat, sc, 10 mg/kg, rat plasma, SC 10.0 mg eq./kg, read-out: Half-life (t½) (converted)) of 2.59 h. The Cmax (male, Sprague-Dawley, rat, sc, 10 mg/kg, rat plasma, SC 10.0 mg eq./kg, read-out: Observed Cmax) was 6190 nM, the Tmax (male, Sprague-Dawley, subcutaneous, rat plasma, po and sc, all dose levels, read-out: Tmax after extravascular administration) was 0.5 to 1 h and the Cmax/Cmin ratios (rat) was > 100. The “total systemic clearance, times higher than GFR” value (rat) was ~ 13 fold, the AUCnorm (rat brain, IV 1.22 mg eq./kg) was 39040 (nM hr/kg) /(kg/mg) and the “Observed CmaxNorm” value (rat brain, IV 1.22 mg eq./kg) was 9003 nM/ (mg/kg). The AUCnorm (rat brain, PO 1.22 mg eq./kg) was 17310 (nM hr/kg) /(kg/mg), the “Observed CmaxNorm” value (rat brain, PO 1.22 mg eq./kg) was 1775 nM/ (mg/kg) and the AUCnorm (rat brain, PO 10.0 mg eq./kg) was 25620 (nM hr/kg) /(kg/mg). The “Observed CmaxNorm” value (rat brain, PO 10.0 mg eq./kg) was 2543 nM/ (mg/kg), the AUCnorm (rat brain, SC 1.0 mg eq./kg) was 52980 (nM hr/kg) /(kg/mg) and the “Observed CmaxNorm” value (rat brain, SC 1.0 mg eq./kg) was 10620 nM/ (mg/kg). For the same molecule, the AUCnorm (rat brain, SC 10.0 mg eq./kg) was 44160 (nM hr/kg) /(kg/mg), the “Observed CmaxNorm” value (rat brain, SC 10.0 mg eq./kg) was 7544 nM/ (mg/kg) and the “AUC0-∞ increase, fold more than dose proportional” value [1] was 1.5 fold. For the same molecule, the “Cmax increase, fold more than dose proportional” value [1] was ~ 1.5 fold, the “Cmax and AUC0-∞ increase relative to dose proportional” value (rat brain, sc dose increase from 1 to 10 mg/kg, slightly less than dose proportional) was 0.7-0.8 fold and the AUCnorm (rat plasma, IV 1.22 mg eq./kg) was 1342 (nM hr/kg) /(kg/mg). For the same molecule, the AUCnorm (rat plasma, PO 1.22 mg eq./kg) was 486.9 (nM hr/kg) /(kg/mg), the “Observed CmaxNorm” value (rat plasma, PO 1.22 mg eq./kg) was 89.07 nM/ (mg/kg) and the AUCnorm (rat plasma, PO 10.0 mg eq./kg) was 1139 (nM hr/kg) /(kg/mg). For the same molecule, the “Observed CmaxNorm” value (rat plasma, PO 10.0 mg eq./kg) was 369.6 nM/ (mg/kg), the AUCnorm (rat plasma, SC 1.0 mg eq./kg) was 1686 (nM hr/kg) /(kg/mg) and the “Observed CmaxNorm” value (rat plasma, SC 1.0 mg eq./kg) was 985.0 nM/ (mg/kg). The AUCnorm (rat plasma, SC 10.0 mg eq./kg) was 2581 (nM hr/kg) /(kg/mg), the “Observed CmaxNorm” value (rat plasma, SC 10.0 mg eq./kg) was 618.9 nM/ (mg/kg) and the “AUC0-∞ increase, fold more than dose proportional” value [2] was 2.3 fold. For the same molecule, the “Cmax increase, fold more than dose proportional” value [2] was ~ 4 fold, the “AUC0-∞ increase, fold more than dose proportional” value (rat plasma, sc dose increase from 1 to 10 mg/kg) was 1.5 fold and the elimination half-life (rat, all dose routes and levels (plasma; b142 also brain)) was < 4 h. The “C max/ C min ratio” value (rat, dose 10 mg/kg) was 123, the “delay in Tmax for brain compared to plasma” value (rat, same dose level and route) was 0.25 to 1.5 h and the “Contribution of active transport to clearance” value (rodent (rat)) was > 100%. The “brain elimination half-lives after extravascular administrations” value (summary for rats and mice, rat) was 2.28 – 3.8.
